Among the data in US9233933B2, “4,4-disubstituted-1,4-dihydropyrimidines and the use thereof as medicaments for the treatment of hepatitis B” (priority 2012, dated 2016) are EC50 and CC50 values, retold here.

The subject of series [1] is HBV. Description: anti-HBV activity in stable transfected HepG2.2.15 cell line, HBV DNA from secreted virions by realtime PCR. In kind it is cell-based, Hepatitis B virus. To be noted: HepG2.2.15 cells, 6 days of treatment, secreted virion HBV DNA, read-out: HBV-HepG2 2.15 EC50.
The test system of series [2] is HBV. Description: anti HBV activity in HepG2.117 cell line (Tet-off, inducibly HBV producing), intracellular HBV DNA by realtime PCR. The series is classed as cell-based, Hepatitis B virus. To be noted: HepG2.117 cells, 3 days of treatment, intracellular HBV DNA, read-out: HepG2 117 EC50.
Series [3] is described as follows: Cytotoxicity in HepG2 cells incubated 4 days, Resazurin assay. To be noted: human, HepG2 4 days CC50, HepG2 cells. Background: Resazurin is reduced to fluorescent resorufin, in cell work by metabolically active cells.
Series [4] is described as follows: Cytotoxicity in HepG2 cells using CellTiter-Blue, same incubation period as HepG2.2.15 assay. The series is classed as cell-based. To be noted: human. As for the experimental part: Cytotoxicity of the compounds was tested in HepG2 cells using CellTiter-Blue, with the same incubation period and dose range as in the HepG2.2.15 assay.
Where [5] appears, read: Hepatitis B virus, HepG2.2.15, 144 h.
Where [6] appears, read: Hepatitis B virus, HepG2.117, 72 h.
Setting [7] is: HepG2 cells, 6 days, CellTiter-Blue, read-out: HepG2 6 days CC50.

Each structure is given as a SMILES string. Read-outs that look alike come from different tables or passages of the source.

Regarding `C=CC1=C(C(=O)OC)C(C)(c2ccc(F)c(F)c2)N=C(c2ncc(F)cc2F)N1` (stereo not shown) [Compound 153], the figures for the EC50 with HBV [1] (setting [5]) and with HBV [2] (setting [6]) were 12.9 µM and 3.31 µM, respectively. In addition, in series [3], the cytotoxic concentration (CC50) (in general, the concentration giving 50% cytotoxicity) at 4 days is > 25 µM.

With `CCOC(=O)C1=C(C)NC(c2ccccn2)=NC12CCc1cc(F)ccc12` (stereo not shown) [Compound 40], the concentration for a half-maximal effect (EC50) (in general, the concentration that produces a half-maximal response) with HBV [1] (setting [5]) is 14 µM. In series [4] (HepG2 6 days CC50), this compound had a CC50 at 6 days of 77 µM.

Turning to `CCOC(=O)C1=C(C)NC(c2ccccn2)=NC1(c1ccc(F)cc1)C(F)(F)F` (stereo not shown) [Compound 35], the half-maximal effective concentration (EC50) in the series with HBV [1] (setting [5]) is > 100 µM. Also, the cytotoxic concentration (CC50) at 6 days in series [4] (setting [7]) worked out at 68.1 µM.

For `COC(=O)C1=C(C)NC(c2ncc(F)cc2F)=NC1(c1ccc(F)c(F)c1)C(F)F` (single isomer, unassigned) [Compound 151a], the EC50 was > 100 µM with HBV [1] and > 25 µM in the series with HBV [2]. Further, in series [3], the CC50 at 4 days is > 25 µM.

Regarding `COC(=O)C1=C(C)NC(c2ncc(F)cc2F)=NC1(C)c1ccc(C)c(F)c1` (stereo not shown) [Compound 157], the results for the EC50 with HBV [1] (setting [5]) and in the series with HBV [2] (setting [6]) were 9.52 µM and 3.06 µM, respectively. Also, the CC50 at 4 days in series [3] is > 25 µM.

With `COC(=O)C1=C(C)NC(c2ncc(F)cc2F)=NC1(C)c1ccc(F)c(F)c1` (stereo not drawn) [132b (−)-camphanic acid], the EC50 in the series with HBV [1] came to 0.489 µM.

For `COC(=O)C1=C(C)NC(c2ncc(F)cc2C)=NC12CCCc1cc(F)ccc12` (stereo not shown) [Compound 81], in the series with HBV [1] (setting [5]), the half-maximal effective concentration (EC50) was determined as 19.9 µM. The CC50 at 6 days in series [4] (HepG2 6 days CC50) was > 50 µM.

Consider `CCOC(=O)C1=C(C)NC(c2nccs2)=NC1(C)c1ccc(F)c(Cl)c1` (stereo not shown) [Compound 21], for which, in the series on HBV [1] (setting [5]), the EC50 was 12.7 µM. Also, the CC50 at 6 days in series [4] (setting [7]) was determined as 17.5 µM.

In the case of `COC(=O)C1=C(C)NC(c2nccs2)=NC1(C)c1ccc(F)c(F)c1` (single isomer, unassigned) [Compound 155a], the figures for the concentration for a half-maximal effect (EC50) in the series with HBV [1] and with HBV [2] (setting [6]) were 0.983 µM and 17.1 µM, respectively.

Consider `CCOC(=O)C1=C(CN2CCCCC2)NC(c2ccccn2)=NC1(C)c1ccc(F)cc1` (stereo not shown) [Compound 9], for which the EC50 in the series on HBV [1] (setting [5]) was > 100 µM. In addition, the CC50 at 6 days in series [4] (setting [7]) came to 62.4 µM.

With `CCOC(=O)C1=C(C(F)(F)C(F)(F)F)NC(c2ccccn2)=NC1(C)c1ccc(F)cc1` (stereo not shown) [Compound 11], the EC50 in the series with HBV [1] (setting [5]) was > 100 µM. The cytotoxic concentration (CC50) at 6 days in series [4] (setting [7]) was > 100 µM.

Take `COC(=O)C1=C(C)NC(c2nccs2)=NC1(C)c1ccc(F)c(F)c1` (single isomer, unassigned) [Compound 155b]: the 50% effective concentration (EC50) in the series on HBV [1] was > 100 µM; in the series on HBV [2] it was > 25 µM.

Take `COC(=O)C1=C(C)NC(c2ncccc2F)=NC1(C)c1ccc(F)c(F)c1` (racemic) [Compound 158]: in the series on HBV [2] (setting [6]), the concentration for a half-maximal effect (EC50) was found to be 4.56 µM. In addition, in series [3], the CC50 at 4 days is > 25 µM.

On to `COC(=O)C1=C(C)NC(c2ncccc2F)=NC1(C)c1ccc(F)c(F)c1` (single isomer, unassigned) [Compound 158a], for which, in the series on HBV [2], the EC50 worked out at 2.44 µM. The CC50 at 4 days in series [3] was > 25 µM.

As for `COC(=O)C1=C(C)NC(c2ncc(F)cc2F)=NC1(C)c1ccc(F)c(Cl)c1` (stereo not shown) [Compound 148], the EC50 with HBV [2] (setting [6]) was > 25 µM. Further, the CC50 at 4 days in series [3] turned out to be 17.2 µM.

Take `CCOC(=O)C1=C(C#N)NC(c2ccccn2)=NC1(C)c1ccc(F)cc1` (stereo not shown) [Compound 5]: the EC50 with HBV [1] (setting [5]) is > 100 µM. The cytotoxic concentration (CC50) at 6 days in series [4] (setting [7]) is > 100 µM.

Turning to `N#CC1=C(CN2CCOCC2)NC(c2ccccn2)=NC12CCCc1ccccc12` (stereo not shown) [Compound 61], the half-maximal effective concentration (EC50) in the series with HBV [1] (setting [5]) worked out at 18 µM. Moreover, the CC50 at 6 days in series [4] (setting [7]) is > 100 µM.

In the case of `CCOC(=O)C1=C(C)NC(c2ccccn2)=NC1(C)c1ccc(F)cc1` (stereo not shown) [Compound 6], in the series on HBV [1] (setting [5]), the EC50 was > 25 µM. Besides, the CC50 at 6 days in series [4] (setting [7]) was > 25 µM.

As to `COC(=O)C1=C(C)NC(c2cnccn2)=NC1(C)c1ccc(F)c(F)c1` (stereo not shown) [Compound 161], in the series with HBV [2] (setting [6]), the EC50 was > 25 µM.

`COC(=O)C1=C(C)NC(c2nccs2)=NC1(C)c1ccc(F)c(F)c1` (racemic) [Compound 155]: the figures for the half-maximal effective concentration (EC50) with HBV [1] (setting [5]) and in the series on HBV [2] (setting [6]) were 0.744 µM and 14 µM, respectively.

Regarding `CCOC(=O)C1=C(CN2CCCC2)NC(c2ccccn2)=NC1(C)c1ccc(F)cc1` (stereo not shown) [Compound 7], the EC50 with HBV [1] (setting [5]) was > 100 µM. Moreover, the CC50 at 6 days in series [4] (setting [7]) stood at 13.4 µM.
